From patent US20090148883A1, “BIOMARKER FOR ASSESSING RESPONSE TO FMS TREATMENT” (priority 2007, published 2009)
Several values for one entry are separate records, joined by “and”; a condition that tells them apart may be missing. Equal values may be shown once.

Assays:
CSF-1 [1] = assay: Plasma CSF-1 biomarker in rats, Example 2 (po bid 5 days); assay type: in vivo, rat; conditions: 40 mg/kg po bid, control ~75 pg/ml
Protocol: (§1) Groups of female Sprague Dawley rats (n=5) were orally administered 5 or 15 mg/kg of COMPOUND 2 or 40 mg/kg COMPOUND 1 twice per day for 5 consecutive days to characterize compound tolerability. Additional groups of rats, treated with vehicle or 40 mg/kg COMPOUND 1, were terminated one hour after the a.m. dose on Days 1 and 3 for interim analysis of various parameters. Post-mortem analysis of all treated animals included standard necropsy with liver histology evaluation as well as standard hematology and serology. None of the animals were found dead or were euthanized (moribund) prior to scheduled termination. None of the treatments affected body weight or the organ:body weight ratio of selected organs (i.e., liver, thymus, spleen & uterus). […] Both compounds, at the highest dose tested, decreased the number of macrophages in the uterus (up to ˜60% for COMPOUND 2) on Day 5 however, this parameter was highly variable.
On Day 0, the rats were ear tagged, randomized into the treatment groups (Groups 1 & 4: n=15, Groups 2 & 3: n=5), weighed and treated (po, bid) with either vehicle (20% HPbCD) or the test articles as delineated in Table 2 (Allocation of Treatment Groups).
(§2) On Days 1 & 3, one hour after a.m. dose, five rats from Groups 1 and 4 were euthanized using CO2 asphyxiation and exsanguinated via cardiac puncture. Blood samples (˜500 μL) were transferred to separate ethylenediaminetetraacetic acid (EDTA) microtainers and a complete blood count (CBC) was conducted using the Advia 120 Hematology System (Bayer Diagnostics, Tarrytown, N.Y.). Additional blood samples were transferred to separate microtainers (with or without anticoagulant) and processed for biomarker (i.e., MCSF-1) and serologic (i.e., AST/ALT) analysis. The liver and thymus were weighed and discarded. The spleens were weighed and zap-frozen and the uteri (without ovaries attached) were weighed and fixed in 10% buffered formalin. The macrophage content of the uterus was determined immunohistochemically using a macrophage-specific (ED-1) antibody.
On Day 5, rats were euthanized using carbon dioxide and exsanguinated via cardiac puncture. Blood samples (˜500 μL) were collected and processed as described above for CBC, biomarker analysis and serology. The liver, spleen, thymus and uterus (without ovaries attached) were isolated, weighed and fixed in buffered formalin. The right knee with femur attached was isolated, trimmed and fixed in formalin. The left femur was isolated for determination of bone marrow cell counts. Liver histopathology was also conducted.
Differences between treated and control groups were analyzed statistically by ANOVA with a Dunnett's Multiple Comparison post-test. (p value; *:<0.05, **:<0.01).

CSF-1 [2] = assay: Plasma CSF-1 after single ascending oral doses in healthy male subjects (Human CSF-1 ELISA); assay type: in vivo; conditions: individual subjects (placebo subjects not identified); for Plasma CSF-1 Fold Change from Baseline: 1200 mg single oral dose cohort
Protocol: The safety and tolerability of single ascending, oral doses of COMPOUND 1 in healthy male subjects was assessed. Blood samples were collected on Day 1 predose and at 2, 4, 8, 12, 24 and 48 hours postdose and assessed for biomarker. Analysis of the biomarker was performed for all subjects receiving at least one dose of COMPOUND 1 or placebo as set forth in Table 5.
4 mL venous blood samples were collected on Day 1, within 60 minutes (predose), 2, 4, 8, 12, 24, and 48 hours postdose and 3 mL on Day 1 predose, 2 and 8 hours postdose for assessment of the effect of COMPOUND 1 on plasma CSF-1.
Plasma CSF-1 levels were measured using R&D Systems Human CSF-1 ELISA. Samples were diluted 1:5 for assay. Assay range for standards is 31-2000 pg/mL. Maximum measurable plasma concentration is ˜10000 pg/ml. Current maximum measured concentration ˜4000 pg/ml.

BMDM = assay: CSF-1-induced BMDM proliferation; assay type: cell-based; conditions: Mus musculus, data not shown, read-out: IC50 for inhibition of CSF-1-induced BMDM proliferation
[3] = test system: bone marrow derived macrophages (BMDM); assay: Clearance of CSF-1 by bone marrow derived macrophages in vitro (CSF-1 ELISA of conditioned media); assay type: cell-based, mouse; conditions: for Reduction of rate of CSF-1 consumption: slopes through 4.9 hours
Protocol: COMPOUND 1 was provided as a 10 mM stock in dimethyl sulfoxide (DMSO).Recombinant mouse CSF-1 (416 mL 050) and mouse CSF-1 ELISA (MNC00) were both purchased from R&D Systems Inc., (Minneapolis, Minn.). Mouse bone marrow-derived macrophage (BMDM) were prepared and were plated into 12 well plates in the presence of culture media (αMEM containing 10% FCS and glutamine PenStrep) and 25 ng/mL CSF-1 for three days until approximately 60% confluency was achieved. The cultures were then washed twice with media without CSF-1, and cultured for 2 hrs in the absence of CSF-1 to allow the macrophages to consume CSF-1 that may have been residual to the wells. The cultures were next adjusted to contain CSF-1 and COMPOUND 1 as indicated in Table 1 (Experimental Design) and incubation was continued at 37° C. and 5% CO2. […] At timed-intervals (0, 1.1, 2.3, 4.9, 10.3, 19.9, 29, and 44 hours) 50 μl of conditioned media were removed from each well and saved under refrigeration. After harvest of the last time point, all samples were subjected to CSF-1 ELISA. CSF-1 concentrations (pg/mL) vs time were plotted for each well using linear linear and log linear formats. Consumption was log linear over the first 4.9-hours. Excel was used to calculate a best fit linear equation describing CSF-1 consumption for each well through 4.9 hours and slopes were used to determine the relative rates of consumption.

[4] = Tolerability in rats, Example 2; assay type: in vivo; conditions: 5 or 15 mg/kg COMPOUND 2 or 40 mg/kg COMPOUND 1, po bid, 5 consecutive days
Protocol: as §1, with “variable. […]” for “variable.”
On Days 1 & 3, one hour after a.m. dose, five rats from Groups 1 and 4 were euthanized using CO2 asphyxiation and exsanguinated via cardiac puncture. […] The macrophage content of the uterus was determined immunohistochemically using a macrophage-specific (ED-1) antibody. […]

[5] = test system: ED-1 positive macrophages in the uterus; assay: Macrophage content of the uterus (ED-1 immunohistochemistry) in rats, Example 2; assay type: in vivo, rat; conditions: highest dose tested (COMPOUND 2 15 mg/kg, COMPOUND 1 40 mg/kg po bid), Day 5; highly variable
Protocol: as §1, §2
On Day 5, rats were euthanized using carbon dioxide and exsanguinated via cardiac puncture. […]
Differences between treated and control groups were analyzed statistically by ANOVA with a Dunnett's Multiple Comparison post-test. […]

What does the source list for CN(C)CC(=O)N1CCC(c2ccc(NC(=O)c3nc(C#N)c[nH]3)c(C3=CCCCC3)c2)CC1.Cl [COMPOUND 1]?
Mean plasma CSF-1 level (CSF-1 [1]; Day 1): 112 pg/mL; Mean plasma CSF-1 level (CSF-1 [1]; Day 3): 314 pg/mL; Mean plasma CSF-1 level (CSF-1 [1]; Day 5): 526 pg/mL; Plasma CSF-1 Fold Change from Time 0 (CSF-1 [2]; 150 mg single oral dose cohort, 2 hours postdose): 1.8 fold (2×) and 2.5 fold and 2.0 fold and 0.8 fold (2×) and 0.9 fold; Plasma CSF-1 Fold Change from Time 0 (CSF-1 [2]; 150 mg single oral dose cohort, 4 hours postdose): 2.2 fold and 1.8 fold and 1.9 fold (2×) and 0.8 fold (2×) and 0.9 fold; Plasma CSF-1 Fold Change from Time 0 (CSF-1 [2]; 150 mg single oral dose cohort, 8 hours postdose): 1.4 fold and 2.5 fold and 1.6 fold and 1.0 fold and 0.8 fold and 1.7 fold and 0.7 fold; Plasma CSF-1 Fold Change from Time 0 (CSF-1 [2]; 150 mg single oral dose cohort, 12 hours postdose): 1.5 fold and 1.6 fold and 2.4 fold and 0.9 fold and 0.8 fold and 1.7 fold and 0.7 fold; Plasma CSF-1 Fold Change from Time 0 (CSF-1 [2]; 150 mg single oral dose cohort, 24 hours postdose): 1.4 fold and 1.3 fold and 1.2 fold and 2.0 fold and 0.9 fold and 1.8 fold and 0.7 fold; Plasma CSF-1 Fold Change from Time 0 (CSF-1 [2]; 150 mg single oral dose cohort, 48 hours postdose): 1.2 fold and 1.1 fold and 1.0 fold and 0.8 fold and 1.8 fold and 1.4 fold and 0.6 fold; Plasma CSF-1 Fold Change from Time 0 (CSF-1 [2]; 300 mg single oral dose cohort, 2 hours postdose): 4.6 fold and 0.8 fold and 3.3 fold and 2.7 fold and 0.9 fold and 5.2 fold and 3.4 fold and 1.8 fold; Plasma CSF-1 Fold Change from Time 0 (CSF-1 [2]; 300 mg single oral dose cohort, 4 hours postdose): 4.4 fold (2×) and 1.4 fold and 3.0 fold and 0.7 fold and 6.8 fold and 4.5 fold and 2.6 fold; Plasma CSF-1 Fold Change from Time 0 (CSF-1 [2]; 300 mg single oral dose cohort, 8 hours postdose): 3.8 fold and 0.9 fold and 3.4 fold and 3.0 fold and 1.5 fold and 6.4 fold and 4.1 fold and 1.9 fold; Plasma CSF-1 Fold Change from Time 0 (CSF-1 [2]; 300 mg single oral dose cohort, 12 hours postdose): 2.6 fold and 0.8 fold and 2.2 fold and 3.8 fold and 0.9 fold and 4.5 fold and 3.0 fold and 1.4 fold; Plasma CSF-1 Fold Change from Time 0 (CSF-1 [2]; 300 mg single oral dose cohort, 24 hours postdose): 1.9 fold and 0.9 fold and 1.5 fold (3×) and 1.7 fold and 2.1 fold and 1.1 fold; Plasma CSF-1 Fold Change from Time 0 (CSF-1 [2]; 300 mg single oral dose cohort, 48 hours postdose): 2.3 fold and 1.0 fold and 1.4 fold (2×) and 0.9 fold and 2.2 fold and 1.2 fold and 0.8 fold; Plasma CSF-1 Fold Change from Time 0 (CSF-1 [2]; 600 mg single oral dose cohort, 2 hours postdose): 7.5 fold and 0.7 fold and 2.9 fold and 5.0 fold and 0.9 fold and 6.0 fold and 4.8 fold and 2.3 fold; Plasma CSF-1 Fold Change from Time 0 (CSF-1 [2]; 600 mg single oral dose cohort, 4 hours postdose): 8.7 fold and 1.2 fold; Plasma CSF-1 Fold Change from Baseline (CSF-1 [2]; 2 hours postdose): 5.4 fold and 4.9 fold and 0.8 fold and 4.4 fold (2×) and 6.8 fold and 0.5 fold and 3.5 fold; Plasma CSF-1 Fold Change from Baseline (CSF-1 [2]; 4 hours postdose): 8.9 fold and 8.4 fold and 1.0 fold and 7.6 fold and 9.5 fold and 5.9 fold and 0.4 fold and 5.3 fold; Plasma CSF-1 Fold Change from Baseline (CSF-1 [2]; 8 hours postdose): 9.9 fold and 9.8 fold and 1.0 fold and 11.3 fold and 13.4 fold and 6.9 fold and 0.4 fold and 7.8 fold; Plasma CSF-1 Fold Change from Baseline (CSF-1 [2]; 12 hours postdose): 9.2 fold and 5.2 fold and 2.1 fold and 10.5 fold and 8.8 fold and 5.8 fold and 0.4 fold and 6.0 fold; Plasma CSF-1 Fold Change from Baseline (CSF-1 [2]; 24 hours postdose): 4.7 fold and 1.4 fold and 1.0 fold and 6.1 fold and 2.9 fold and 3.2 fold and 0.4 fold and 1.8 fold; Plasma CSF-1 Fold Change from Baseline (CSF-1 [2]; 48 hours postdose): 2.7 fold (2×) and 1.0 fold and 0.9 fold and 3.3 fold and 2.4 fold and 0.6 fold and 1.6 fold; IC50 (BMDM): 2.6 nM; Reduction of rate of CSF-1 consumption ([3]; 0.001 μM, 1 ng/mL CSF-1): 16%; Reduction of rate of CSF-1 consumption ([3]; 0.01 μM, 1 ng/mL CSF-1): 56%; Reduction of rate of CSF-1 consumption ([3]; 0.1 μM, 1 ng/mL CSF-1): 64%; Portion of CSF-1 clearance not inhibited ([3]; 1 uM): ~36%; Reduction of rate of CSF-1 consumption ([3]; 1 μM, 1 ng/mL CSF-1): 64%; IC50 ([3]; Mus musculus, BMDM, 1 ng/mL CSF-1, read-out: Half-maximal inhibition of CSF-1 consumption): 1 to 10 nM; Portion of CSF-1 clearance that can be inhibited ([3]; based on consumption rates, plateau): ~64%; Effect on appearance, behavior, body weight or organ:body weight ratio (liver, spleen, thymus) [4]: did not have an observable effect; Effect on macrophage content of the uterus [5]: decreased the macrophage content of the uterus
